ChEMBL document CHEMBL1201862, “PubChem BioAssay data set” (2004)
Activity calls are given as the source filed them.

What was measured:
[1] = cytotoxicity toward DRD oncogenic fibroblasts, dose response, cell-based, non-viral oncogenic, luminescence (AID 1934); format: functional; conditions: Homo sapiens
[2] = cytotoxicity in OV-90 ovarian cancer cells, dose response, PAX8 inhibitor project, cell-based, plate reader, dry powder, SA8 (AID 743149); format: functional
[3] = target: Paired box protein Pax-8 (Homo sapiens, UniProt Q06710); assay: inhibitors of PAX8-driven TPO luciferase reporter, dose response, RMG-I cells, cherry-pick (AID 687027); format: functional, cell-based;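 further: luciferase reporter driven by Pax8 target thyroperoxidase promoter measured by SteadyGlo luminescence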
[4] = Luminescence Cell-Based Dose Retest to Confirm Inhibitors of Cancer Stem Cells. [Related pubchem assays (depositor defined):AID2717, AID2721]; format: functional; conditions: Homo sapiens
[5] = cells; format: functional, cell-based
[6] = tested on: BJ; assay: cells; format: functional, cell-based; conditions: Homo sapiens
[7] = cytotoxicity in HEK-293T cells, dose response, cytotoxicity control for TCR NF-kB inhibitor project, luminescence, T-cell screen hits (AID 489026); format: functional, cell-based;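 further: cells exposed to compound about 14 hours before the viability readout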
[8] = cytotoxicity in OVCAR4 cells, dose response, cytotoxicity control for PAX8 inhibitor project, cell-based, plate reader, dry powder, SA11 (AID 743150); format: functional; conditions: OVCAR-4
[9] = cytotoxicity in COV434 cells, dose response, cytotoxicity control for PAX8 inhibitor project, cell-based, plate reader, dry powder, SA7 (AID 743145); format: functional
[10] = A2780 ovarian cancer cell cytotoxicity, dose response, cytotoxicity control, plate reader, dry powder samples (AID 743046); format: functional, cell-based
[11] = IOSE-T80 ovarian epithelial cell cytotoxicity, dose response, cytotoxicity control for PAX8 inhibitor project, plate reader, dry powder samples (AID 743045); format: functional, cell-based
[12] = cytotoxicity in HMLE control line with eGFP shRNA, dose response, counter-screen for HMLE_sh_ECad selective toxicity project, cell-based, HMLE_sh_eGFP, luminescence (AID 463074); format: functional, Homo sapiens;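 further: HMLE human mammary epithelial cells expressing control shRNA against eGFP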
[13] = PAX2 cell-based inhibition, dose response, selectivity assay for PAX8 inhibitor project, plate reader, dry powder samples (AID 743048); format: functional;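 further: HEK293 cells carrying a WT1 promoter luciferase reporter driven by expressed Pax2; potency is for inhibition of Pax2 driven reporter signal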
[14] = IGROV1 ovarian cancer cell cytotoxicity, dose response, PAX8 inhibitor project, plate reader, dry powder samples (AID 743043); format: functional, cell-based; conditions: IGROV-1
[15] = target: T1, Nuclear receptor subfamily 0 group B member 1 (Homo sapiens, UniProt P51843); format: functional, cell-based;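 further: HEK293T cells transfected with SF-1 and DAX-1 plus StAR promoter luciferase reporter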
T1 sequence (P51843 whole entry): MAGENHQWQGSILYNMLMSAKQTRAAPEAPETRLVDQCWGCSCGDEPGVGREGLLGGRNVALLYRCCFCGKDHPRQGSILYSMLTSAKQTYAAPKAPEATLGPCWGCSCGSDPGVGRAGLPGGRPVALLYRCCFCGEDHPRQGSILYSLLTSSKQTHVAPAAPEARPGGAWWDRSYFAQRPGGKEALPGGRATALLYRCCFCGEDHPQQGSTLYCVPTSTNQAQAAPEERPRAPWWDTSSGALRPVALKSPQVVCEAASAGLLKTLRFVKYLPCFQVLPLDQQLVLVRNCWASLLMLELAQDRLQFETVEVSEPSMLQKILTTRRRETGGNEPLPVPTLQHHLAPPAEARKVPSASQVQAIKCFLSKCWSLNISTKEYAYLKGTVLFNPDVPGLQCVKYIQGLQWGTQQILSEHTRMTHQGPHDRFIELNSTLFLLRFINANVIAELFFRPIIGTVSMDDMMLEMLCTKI

[16] = cytotoxicity in COV362 ovarian cancer cells, dose response, cytotoxicity control for PAX8 inhibitor project, cell-based, plate reader, dry powder, SA12 (AID 743144); format: functional
[17] = NIH:OVCAR-3 ovarian cancer cell cytotoxicity, dose response, PAX8 inhibitor project, plate reader, dry powder samples (AID 743044); format: functional, cell-based
[18] = PAX5 activity inhibitors, dose response, selectivity assay for PAX8 inhibitor project, cell-based, plate reader, dry powder samples (AID 743047); format: functional;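 further: HEK293 cells carrying a Pax5 driven CD19 promoter luciferase reporter; potency of inhibitors that lower reporter luminescence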
[19] = cytotoxicity dependent on PAX8, dose response, cell-based, plate reader, dry powder (AID 743049); format: functional
[20] = target: Peroxisome proliferator-activated receptor gamma/Nuclear receptor coactivator 3 (Homo sapiens, UniProt P37231); format: functional;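 further: agonist potency for raising coactivator recruitment to the receptor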
[21] = target: Peroxisome proliferator-activated receptor gamma/Nuclear receptor coactivator 1 (Homo sapiens, UniProt P37231); format: functional;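 further: agonist potency as compounds enhance coactivator SRC-1 recruitment to PPARgamma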
[22] = target: Ion channel NompC (Danio rerio, UniProt Q7T1G6); assay: Fluorescence counterscreen assay for TRPML3 agonists: dose response cell-based high-throughput screening assay to identify agonists of the transient receptor potential channel N1 (TRPN1). [Related pubchem assays: 1526, 1424, 1448 ]; format: functional
[23] = target: T2, Oxysterols receptor LXR-beta (Homo sapiens, UniProt P55055); format: functional, cell-based;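 further: agonist activity at LXR measured by a cell-based luminescence readout across a dose range, run as a counterscreen for daf-12 agonists; HEK293 cells with Gal4-LXR fusion and GAL4-driven luciferase reporter; potency for activation of Gal4-LXR reporter so compounds are agonists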
T2 sequence (P55055 whole entry): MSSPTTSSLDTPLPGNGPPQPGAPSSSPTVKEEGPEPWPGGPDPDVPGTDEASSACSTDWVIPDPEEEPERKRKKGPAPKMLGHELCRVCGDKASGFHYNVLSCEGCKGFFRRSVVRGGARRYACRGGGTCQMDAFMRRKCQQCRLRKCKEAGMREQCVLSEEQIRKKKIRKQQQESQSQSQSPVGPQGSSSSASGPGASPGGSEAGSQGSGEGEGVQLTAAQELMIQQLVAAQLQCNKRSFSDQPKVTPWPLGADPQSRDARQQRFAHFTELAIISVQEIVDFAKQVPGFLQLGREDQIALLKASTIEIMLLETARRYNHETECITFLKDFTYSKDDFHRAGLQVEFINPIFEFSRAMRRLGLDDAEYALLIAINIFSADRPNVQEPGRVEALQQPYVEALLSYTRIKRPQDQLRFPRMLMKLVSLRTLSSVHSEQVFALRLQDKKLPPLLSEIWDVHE

[24] = target: T3, Leucine aminopeptidase (Plasmodium falciparum 3D7, UniProt Q8IL11); assay: P. falciparum M17LAP inhibitors, primary screen, biochemical, fluorogenic H-Leu-NHMec substrate, 1536-well (AID 1619); format: functional
T3 sequence (Q8IL11 whole entry): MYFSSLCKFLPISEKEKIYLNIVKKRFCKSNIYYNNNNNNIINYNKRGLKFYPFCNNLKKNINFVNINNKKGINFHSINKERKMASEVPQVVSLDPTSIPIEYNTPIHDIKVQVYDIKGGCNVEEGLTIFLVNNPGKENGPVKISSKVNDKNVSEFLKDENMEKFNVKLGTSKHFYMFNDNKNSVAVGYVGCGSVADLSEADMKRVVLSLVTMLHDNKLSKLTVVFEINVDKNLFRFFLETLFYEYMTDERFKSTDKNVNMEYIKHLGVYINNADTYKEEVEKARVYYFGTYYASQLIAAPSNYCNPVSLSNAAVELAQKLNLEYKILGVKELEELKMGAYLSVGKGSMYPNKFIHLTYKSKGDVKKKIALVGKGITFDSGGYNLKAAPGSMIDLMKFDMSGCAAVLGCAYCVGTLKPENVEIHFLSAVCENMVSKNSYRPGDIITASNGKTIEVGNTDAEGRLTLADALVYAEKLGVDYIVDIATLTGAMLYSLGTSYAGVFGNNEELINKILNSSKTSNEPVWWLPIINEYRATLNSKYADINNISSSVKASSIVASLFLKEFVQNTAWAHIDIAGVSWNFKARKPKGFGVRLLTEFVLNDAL

[25] = target: Peroxisome proliferator-activated receptor gamma/Nuclear receptor coactivator 2 (Homo sapiens, UniProt P37231); format: functional;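 further: agonist potency for raising coactivator recruitment to the receptor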
[26] = target: Mucolipin-3 (Homo sapiens, UniProt Q8TDD5); assay: Dose response cell-based high-throughput screening assay for agonists of the transient receptor potential channel ML3 (TRPML3). [Related pubchem assays: 1526, 1424, 1448 ]; format: functional
[27] = target: T4, Protein RecA (Mycobacterium tuberculosis, UniProt P9WHJ3); assay: Fluorescence Cell-Free Homogeneous Dose Retest to Identify Inhibitors of RecA-Intein Splicing Activity. [Related pubchem assays (depositor defined):AID2097, AID2223, AID489010, AID492950]; format: functional
T4 sequence (P9WHJ3 whole entry): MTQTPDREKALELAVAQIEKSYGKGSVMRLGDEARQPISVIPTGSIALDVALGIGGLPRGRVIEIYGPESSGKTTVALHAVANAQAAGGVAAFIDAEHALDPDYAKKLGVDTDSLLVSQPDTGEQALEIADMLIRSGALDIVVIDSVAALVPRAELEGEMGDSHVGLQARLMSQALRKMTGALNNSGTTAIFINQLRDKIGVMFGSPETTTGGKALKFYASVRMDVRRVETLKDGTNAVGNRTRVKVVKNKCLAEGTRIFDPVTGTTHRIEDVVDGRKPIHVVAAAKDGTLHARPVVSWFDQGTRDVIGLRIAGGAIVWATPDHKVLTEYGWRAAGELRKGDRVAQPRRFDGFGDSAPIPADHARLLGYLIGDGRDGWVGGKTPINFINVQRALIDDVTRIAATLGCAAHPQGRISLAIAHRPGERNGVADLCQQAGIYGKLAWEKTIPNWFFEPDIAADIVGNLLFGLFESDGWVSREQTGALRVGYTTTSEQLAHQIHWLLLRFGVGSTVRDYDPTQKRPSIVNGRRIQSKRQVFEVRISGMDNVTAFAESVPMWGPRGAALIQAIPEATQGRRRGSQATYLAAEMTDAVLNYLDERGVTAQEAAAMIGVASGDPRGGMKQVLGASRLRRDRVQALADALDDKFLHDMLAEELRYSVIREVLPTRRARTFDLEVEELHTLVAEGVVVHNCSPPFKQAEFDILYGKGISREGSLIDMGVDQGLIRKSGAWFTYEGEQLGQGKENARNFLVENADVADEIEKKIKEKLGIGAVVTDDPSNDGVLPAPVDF

[28] = target: Nonstructural protein 1 (Influenza A virus, UniProt Q194T2); format: functional, Influenza A virus (A/California/07/2009(H1N1))
[29] = target: fMet-Leu-Phe receptor (Homo sapiens, UniProt P21462); assay: FPR ligands, dose response (AID 519); format: functional
[30] = target: T5, Replicative DNA helicase DnaB (Mycobacterium tuberculosis, UniProt P9WMR3); assay: DnaB intein splicing inhibitors, dose response, biochemical, cell-free fluorescence (AID 449749); format: functional
T5 sequence (P9WMR3 whole entry): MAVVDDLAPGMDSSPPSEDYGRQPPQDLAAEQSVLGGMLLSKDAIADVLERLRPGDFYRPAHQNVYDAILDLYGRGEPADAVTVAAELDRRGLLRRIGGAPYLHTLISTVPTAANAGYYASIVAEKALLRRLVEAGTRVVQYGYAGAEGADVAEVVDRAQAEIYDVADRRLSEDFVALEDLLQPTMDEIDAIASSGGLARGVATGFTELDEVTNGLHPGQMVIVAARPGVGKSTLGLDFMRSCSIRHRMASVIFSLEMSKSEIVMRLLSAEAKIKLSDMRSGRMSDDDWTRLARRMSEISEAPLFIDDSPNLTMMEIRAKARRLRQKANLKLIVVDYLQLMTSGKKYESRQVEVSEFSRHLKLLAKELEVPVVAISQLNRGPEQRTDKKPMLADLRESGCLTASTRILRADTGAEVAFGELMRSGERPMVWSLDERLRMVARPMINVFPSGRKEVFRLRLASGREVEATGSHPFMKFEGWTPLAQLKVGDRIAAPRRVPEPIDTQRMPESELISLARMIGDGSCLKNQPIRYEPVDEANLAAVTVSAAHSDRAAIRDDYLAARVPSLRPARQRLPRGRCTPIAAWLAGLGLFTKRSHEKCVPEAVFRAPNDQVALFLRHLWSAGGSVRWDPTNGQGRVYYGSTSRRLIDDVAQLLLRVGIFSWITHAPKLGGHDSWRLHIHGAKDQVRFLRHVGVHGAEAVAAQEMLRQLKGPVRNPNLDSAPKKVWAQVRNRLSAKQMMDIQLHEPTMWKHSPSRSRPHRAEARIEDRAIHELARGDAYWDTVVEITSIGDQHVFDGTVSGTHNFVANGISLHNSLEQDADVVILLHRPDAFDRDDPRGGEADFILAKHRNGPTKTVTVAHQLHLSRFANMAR

[31] = target: Metabotropic glutamate receptor 5 (Rattus norvegicus, UniProt P31424); assay: Identification of a glycine sulfonamide based non-MPEP site positive allosteric potentiator (PAM) of mGlu5 (calcium_assay).; format: functional
[32] = Late stage assay provider results from the probe development effort to identify selective inhibitors of heat shock protein 90 (HSP90): Absorbance-based cell proliferation assay in MCF7 cells.; format: functional
[33] = Late stage assay provider results from the probe development effort to identify selective inhibitors of heat shock protein 90 (HSP90): Absorbance-based cell proliferation assay in SKBR3 cells.; format: functional; conditions: SK-BR-3

Ion channel NompC, sequence (Q7T1G6 whole entry, the tested form may be a part): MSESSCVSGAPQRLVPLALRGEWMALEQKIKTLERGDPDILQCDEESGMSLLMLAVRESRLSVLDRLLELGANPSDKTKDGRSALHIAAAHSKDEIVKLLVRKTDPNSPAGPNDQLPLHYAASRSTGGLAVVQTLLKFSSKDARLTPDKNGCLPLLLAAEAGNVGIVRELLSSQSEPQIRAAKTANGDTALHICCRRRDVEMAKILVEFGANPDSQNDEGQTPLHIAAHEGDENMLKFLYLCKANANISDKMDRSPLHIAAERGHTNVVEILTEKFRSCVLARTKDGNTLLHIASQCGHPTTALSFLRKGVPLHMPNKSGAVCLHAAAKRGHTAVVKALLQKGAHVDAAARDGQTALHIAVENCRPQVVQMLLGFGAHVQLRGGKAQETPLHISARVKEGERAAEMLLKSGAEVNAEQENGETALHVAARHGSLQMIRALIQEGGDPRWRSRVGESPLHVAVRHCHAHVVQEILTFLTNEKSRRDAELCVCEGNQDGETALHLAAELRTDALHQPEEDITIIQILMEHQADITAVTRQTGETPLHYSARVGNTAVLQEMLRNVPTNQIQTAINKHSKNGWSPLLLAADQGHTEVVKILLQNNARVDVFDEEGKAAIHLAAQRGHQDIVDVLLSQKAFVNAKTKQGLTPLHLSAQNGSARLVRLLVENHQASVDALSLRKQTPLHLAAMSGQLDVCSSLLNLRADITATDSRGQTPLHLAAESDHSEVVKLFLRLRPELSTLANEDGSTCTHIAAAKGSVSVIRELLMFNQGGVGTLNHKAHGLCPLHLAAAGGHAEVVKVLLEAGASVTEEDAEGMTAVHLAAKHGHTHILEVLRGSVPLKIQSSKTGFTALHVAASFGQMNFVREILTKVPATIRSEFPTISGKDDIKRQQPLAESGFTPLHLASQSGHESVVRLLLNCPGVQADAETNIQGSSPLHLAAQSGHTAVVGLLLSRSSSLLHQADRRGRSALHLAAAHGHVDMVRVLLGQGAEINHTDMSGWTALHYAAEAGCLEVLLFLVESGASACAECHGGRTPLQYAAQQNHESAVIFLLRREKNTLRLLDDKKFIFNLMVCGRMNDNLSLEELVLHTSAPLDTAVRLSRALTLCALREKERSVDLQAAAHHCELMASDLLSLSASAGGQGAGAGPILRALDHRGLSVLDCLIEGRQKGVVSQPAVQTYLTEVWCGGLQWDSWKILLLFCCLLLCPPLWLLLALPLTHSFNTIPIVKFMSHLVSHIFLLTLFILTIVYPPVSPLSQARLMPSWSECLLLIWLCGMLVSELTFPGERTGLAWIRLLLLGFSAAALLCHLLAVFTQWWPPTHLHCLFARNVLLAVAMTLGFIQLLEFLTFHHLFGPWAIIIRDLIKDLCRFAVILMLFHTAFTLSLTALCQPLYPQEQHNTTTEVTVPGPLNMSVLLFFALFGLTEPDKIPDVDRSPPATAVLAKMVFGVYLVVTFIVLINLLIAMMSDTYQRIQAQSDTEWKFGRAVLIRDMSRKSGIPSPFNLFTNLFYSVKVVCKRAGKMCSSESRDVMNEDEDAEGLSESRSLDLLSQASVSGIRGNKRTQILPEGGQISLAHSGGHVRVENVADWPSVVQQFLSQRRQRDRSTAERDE
Mucolipin-3, sequence (Q8TDD5 whole entry): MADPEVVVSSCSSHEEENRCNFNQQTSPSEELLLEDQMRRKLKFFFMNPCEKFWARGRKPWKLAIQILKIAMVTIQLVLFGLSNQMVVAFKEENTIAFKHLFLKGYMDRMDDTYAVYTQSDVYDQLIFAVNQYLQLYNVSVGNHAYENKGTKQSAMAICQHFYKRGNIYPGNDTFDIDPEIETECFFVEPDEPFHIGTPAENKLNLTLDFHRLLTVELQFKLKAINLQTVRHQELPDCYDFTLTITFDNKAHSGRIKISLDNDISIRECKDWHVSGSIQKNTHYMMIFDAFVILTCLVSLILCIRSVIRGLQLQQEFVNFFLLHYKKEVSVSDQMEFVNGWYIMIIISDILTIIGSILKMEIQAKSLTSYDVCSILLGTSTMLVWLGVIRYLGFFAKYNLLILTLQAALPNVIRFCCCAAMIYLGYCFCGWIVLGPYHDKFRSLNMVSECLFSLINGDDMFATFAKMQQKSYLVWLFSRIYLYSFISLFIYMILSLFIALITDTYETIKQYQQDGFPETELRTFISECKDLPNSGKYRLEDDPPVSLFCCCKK
Peroxisome proliferator-activated receptor gamma/Nuclear receptor coactivator 2, sequence (P37231 whole entry): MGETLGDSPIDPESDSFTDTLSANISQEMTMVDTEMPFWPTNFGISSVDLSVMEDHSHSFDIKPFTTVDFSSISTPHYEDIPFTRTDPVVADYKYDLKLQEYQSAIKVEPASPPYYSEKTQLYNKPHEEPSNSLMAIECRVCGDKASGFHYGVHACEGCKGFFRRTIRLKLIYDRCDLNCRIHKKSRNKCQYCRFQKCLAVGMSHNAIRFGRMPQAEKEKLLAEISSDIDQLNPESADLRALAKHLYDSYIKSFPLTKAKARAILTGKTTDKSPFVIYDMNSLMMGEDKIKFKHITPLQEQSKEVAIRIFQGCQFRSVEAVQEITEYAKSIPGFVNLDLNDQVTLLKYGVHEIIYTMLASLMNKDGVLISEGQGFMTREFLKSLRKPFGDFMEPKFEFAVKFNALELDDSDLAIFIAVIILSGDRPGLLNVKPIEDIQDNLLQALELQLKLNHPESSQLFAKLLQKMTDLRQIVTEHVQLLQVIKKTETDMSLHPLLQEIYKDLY
Peroxisome proliferator-activated receptor gamma/Nuclear receptor coactivator 2, sequence (Q15596 whole entry, further chain): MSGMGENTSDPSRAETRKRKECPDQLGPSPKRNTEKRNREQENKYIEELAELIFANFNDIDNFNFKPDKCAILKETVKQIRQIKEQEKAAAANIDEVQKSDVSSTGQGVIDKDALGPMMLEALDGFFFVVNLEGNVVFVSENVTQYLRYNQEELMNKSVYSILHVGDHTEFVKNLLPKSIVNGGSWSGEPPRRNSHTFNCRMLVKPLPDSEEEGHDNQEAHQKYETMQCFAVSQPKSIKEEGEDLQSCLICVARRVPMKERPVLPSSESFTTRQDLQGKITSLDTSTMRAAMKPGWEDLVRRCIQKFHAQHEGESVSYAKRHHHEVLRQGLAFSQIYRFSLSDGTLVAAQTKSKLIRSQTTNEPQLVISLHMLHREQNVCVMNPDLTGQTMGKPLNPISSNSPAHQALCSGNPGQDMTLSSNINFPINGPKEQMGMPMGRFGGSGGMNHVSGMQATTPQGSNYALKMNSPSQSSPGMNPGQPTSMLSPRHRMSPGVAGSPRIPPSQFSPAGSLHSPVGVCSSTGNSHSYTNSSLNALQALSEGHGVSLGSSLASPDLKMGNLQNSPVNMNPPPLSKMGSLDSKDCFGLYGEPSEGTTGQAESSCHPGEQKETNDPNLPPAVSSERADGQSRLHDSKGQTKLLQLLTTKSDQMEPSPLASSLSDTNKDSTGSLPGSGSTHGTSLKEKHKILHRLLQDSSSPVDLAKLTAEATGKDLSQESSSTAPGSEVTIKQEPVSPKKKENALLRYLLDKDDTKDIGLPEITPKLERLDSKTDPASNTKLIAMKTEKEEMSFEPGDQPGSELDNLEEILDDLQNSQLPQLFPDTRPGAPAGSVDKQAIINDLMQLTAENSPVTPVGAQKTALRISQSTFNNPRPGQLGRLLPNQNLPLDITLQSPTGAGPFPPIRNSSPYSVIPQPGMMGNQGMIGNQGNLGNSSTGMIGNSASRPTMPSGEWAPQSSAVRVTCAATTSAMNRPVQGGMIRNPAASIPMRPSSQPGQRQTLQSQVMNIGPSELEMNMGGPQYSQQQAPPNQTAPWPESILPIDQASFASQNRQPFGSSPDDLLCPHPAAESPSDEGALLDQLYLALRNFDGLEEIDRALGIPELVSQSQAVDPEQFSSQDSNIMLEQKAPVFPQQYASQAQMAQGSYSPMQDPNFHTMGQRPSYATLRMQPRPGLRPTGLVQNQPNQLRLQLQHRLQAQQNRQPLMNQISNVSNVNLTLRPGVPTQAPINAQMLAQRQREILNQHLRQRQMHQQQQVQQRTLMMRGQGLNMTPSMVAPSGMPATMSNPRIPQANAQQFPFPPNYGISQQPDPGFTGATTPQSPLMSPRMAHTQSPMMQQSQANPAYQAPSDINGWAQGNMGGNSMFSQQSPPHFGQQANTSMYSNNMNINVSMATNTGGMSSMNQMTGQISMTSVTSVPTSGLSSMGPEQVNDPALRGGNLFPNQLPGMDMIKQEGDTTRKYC
Paired box protein Pax-8, sequence (Q06710 whole entry): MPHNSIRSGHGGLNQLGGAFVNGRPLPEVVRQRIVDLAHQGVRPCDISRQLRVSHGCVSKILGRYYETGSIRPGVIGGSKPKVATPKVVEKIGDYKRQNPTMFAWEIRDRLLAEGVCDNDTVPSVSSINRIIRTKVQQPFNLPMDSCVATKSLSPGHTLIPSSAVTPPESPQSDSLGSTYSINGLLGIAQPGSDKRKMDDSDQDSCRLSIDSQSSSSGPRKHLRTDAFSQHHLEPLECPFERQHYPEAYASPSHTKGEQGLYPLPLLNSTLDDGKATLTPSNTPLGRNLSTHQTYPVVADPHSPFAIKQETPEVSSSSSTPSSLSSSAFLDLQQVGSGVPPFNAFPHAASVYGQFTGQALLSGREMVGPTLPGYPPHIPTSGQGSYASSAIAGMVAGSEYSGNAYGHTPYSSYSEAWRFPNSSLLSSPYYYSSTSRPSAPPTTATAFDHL
Nonstructural protein 1, sequence (Q194T2 whole entry): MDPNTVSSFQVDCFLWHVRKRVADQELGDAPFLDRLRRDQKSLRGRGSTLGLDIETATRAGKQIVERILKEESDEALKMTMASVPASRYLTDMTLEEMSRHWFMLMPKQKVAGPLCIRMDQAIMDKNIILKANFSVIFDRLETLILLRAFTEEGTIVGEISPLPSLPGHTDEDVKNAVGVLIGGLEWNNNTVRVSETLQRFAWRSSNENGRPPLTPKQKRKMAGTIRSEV

Cc1cccc(N(C)S(=O)(=O)c2ccc(-c3cnc(C4CC4)o3)cc2)c1
inconclusive: AC50 [12] 0.562 µM
active: EC50 [1] < 0.12 µM | AC50 [2] 1.19 µM | AC50 [3] 1.99 µM | AC50 [4] < 0.16 µM | EC50 [6] 40.7 µM | AC50 [8] 0.364 µM | AC50 [9] 0.823 µM | AC50 [10] 3.95 µM | AC50 [11] 0.778 µM | AC50 [13] 33.9 µM | AC50 [14] 13 µM | AC50 [16] 0.366 µM | AC50 [17] 1.89 µM | AC50 [18] 76.2 µM | AC50 [19] 3.81 µM
inactive: IC50 [5] > 67.5 µM | IC50 [7] > 80 µM | IC50 [15] > 67.5 µM

C=CCN1C=CC(=C/C=C(/C#N)C(=O)OCC)C=C1
> 79.4 µM (not active): EC50 [20] | EC50 [21] | EC50 [25]
inactive: EC50 [23] > 67.5 µM
15.3 µM (not active): EC50 [26]
active: EC50 [22] 6.09 µM | IC50 [24] 72.5 µM

Nc1ccc(Nc2ccccc2N)cc1
inactive: Ki [29] > 66.7 µM
active: EC50 [27] 6.86 µM | IC50 [28] 8.33 µM | AC50 [30] 17.9 µM

CS(=O)(=O)N(CC(=O)Nc1ccccn1)c1cc(C(F)(F)F)ccc1Cl
0.085 µM: EC50 [31]

CC(=O)c1ccc(NC(=O)c2ccc(=O)oc2)cc1
inactive: IC50 [32] > 100 µM | IC50 [33] > 100 µM
